Here are results for two compounds from patent US20250186510A1, “BACTERIAL COMPOSITION FOR USE IN TREATMENT OF SUBSTANCE USE DISORDER” (Bar-Ilan University, priority 2022, published 2025).

Test [1] has as its system gut microbial community of cocaine-trained rats. As to the kind of experiment: Gut microbiota throughout cocaine self-administration (beta diversity). The settings on record: day 3 vs day 12, p=0.001.
Test [2] concerns gut microbiota in feces of naïve rats. Nature of the test: Incubation of feces with cocaine and DHEA in vitro (16S rRNA sequencing, UniFrac, LEfSe).
Experimental: Bacterial taxa differences in fecal samples were analyzed using the Linear discriminant analysis effect size (LEfSe) method as a response for either cocaine or DHEA (0, 50, 100 and 500 μM). Stool of naïve rats was collected into 15 ml test tubes and stored under anaerobic conditions. The stool was homogenized using a vortex and mechanical stirring. After completion of the preparation, the fecal slurry was incubated at 37° C. under anaerobic conditions. Following a week of anaerobic incubation, DNA was extracted from the slurry, and 16S rRNA gene sequencing was performed (protocols described above).
The subject of test [3] is gut microbiota of cocaine-trained rats. As to the kind of experiment: Gut microbiota composition (16S rRNA sequencing, UniFrac, ANCOM) after DHEA during extinction.
Test [4] deals with cocaine-seeking behavior of rats. The settings on record: cited from earlier work.
The test system of test [5] is cocaine-seeking behavior of cocaine-trained rats. As to the kind of experiment: Extinction training after cocaine self-administration, daily DHEA. Conditions: DHEA 2 mg/kg IP daily, days 13-22, vs Coc-Vehicle.

Entries after “also recorded” stand apart in the source; their conditions may differ.

As to `COC(=O)[C@H]1[C@@H](OC(=O)c2ccccc2)C[C@@H]2CC[C@H]1N2C` [Cocaine, benzoylmethylecgonine], in test [1], the “gut microbial community (beta diversity) over cocaine self-administration” value was “significant change”. The “number of overrepresented bacterial features (LEfSe)” value in test [2] (cocaine 100 μM vs PBS) came out at 12; in test [2] (cocaine 500 μM vs PBS), 15. The “gut microbiota beta diversity (unweighted UniFrac distances) in vitro” value in test [2] (cocaine 100 μM vs PBS, p=0.047) is on record as “significantly changed”.

Consider `C[C@]12CC[C@H](O)CC1=CC[C@@H]1[C@@H]2CC[C@]2(C)C(=O)CC[C@@H]12` [DHEA, dehydroepiandrosterone], for which the “gut microbiota beta diversity (PCoA of unweighted UniFrac distances)” value in test [3] (day 22, coc-DHEA compared with saline-vehicle) is recorded as “resembled those of rats that received vehicle; also recorded: induces a microbiota more similar to the saline control”. Further, in test [3] (day 22, coc-DHEA vs cocaine-vehicle), the “relative abundance of R. gnavus (ANCOM)” value was “increase in the relative abundance of R. gnavus; also recorded: Levels of R. gnavus rose”. Besides, the “changes in bacterial features (LEfSe)” value in test [2] (DHEA 50 μM) and in test [2] (DHEA 100 μM) was “no significant changes” throughout. Besides, the “gut microbiota composition (weighted UniFrac distances) in vitro” value in test [2] (DHEA 100 μM vs PBS, p=0.036) is given as “significant change”; in test [2] (DHEA 500 μM vs PBS, p=0.02), “significant change”. Besides, the “R. gnavus among overrepresented bacterial features” value in test [2] (DHEA 500 μM) is on record as “none of them belonged to R. gnavus; also recorded: not R. gnavus”. In addition, the “number of overrepresented bacterial features (LEfSe)” value in test [2] (DHEA 500 μM vs PBS) was 16. Also, in test [4] (chronic exogenous DHEA 2 mg/kg, previous work), the “cocaine seeking behavior relative to maintenance levels” value was less than 20%. The “cocaine-seeking behavior, self-administration model” value in test [4] (pretreatment with DHEA, background) is on record as “attenuated cocaine-seeking behavior”. Besides, the “cocaine-seeking behavior (active lever presses) during extinction” value in test [5] is given as “significantly reduced cocaine-seeking behavior”.
